Assay results reported in patent publication US6340677B1, “Method of evaluation of skin conditioning-ameliorating agents and method of producing compositions for topical application to skin” (Pola Chemical Industries, Inc., priority 1997, dated 2002).

Test system: mouse photo-aging model
Test: degree of order of dermis collagen fiber bundle in the mouse photo-aging model (score 0 to 3 from electron microphotographs)
Format: in vivo, hairless mice (Skh: HR-1)
Details: 0.05% solution in ethanol
Experimental: Five groups of hairless mice (Skh: HR-1,female, 8-week-old), each group comprising six mice, were prepared. A part of skin and replica of skin surface morphology were excised from each mouse of one group of them when they were 8 weeks old without the following ultraviolet light irradiation, namely in-the state of before the ultraviolet light irradiation. About the remaining four groups, each mouse was irradiated with ultraviolet light B (Toshiba SE lamp, 60 mJ/cm^2) once per day for 5 days a week and fed up. The irradiation of the ultraviolet light to one group among the four groups described-above was stopped after one week of the initiation of the irradiation and at this time a part of skin and replica of skin surface morphology were excised from each mouse of the group. As the same manner, the irradiation of the ultraviolet light to the another group and to the further another group were stopped after two and five weeks of the initiation of the irradiation and then a part of skin and replica of skin surface morphology were excised from each mouse of the groups respectively. The irradiation of the ultraviolet light to the last group was continued to 10 weeks after initiation of the irradiation to prepare the mouse photo-aging models. Thus the total amount of the ultraviolet light irradiated to the mouse photo-aging models was 3J/cm^2. A part of skin and replica of skin surface morphology were also excised from each mouse photo-aging model obtained above. […] Each of the solution was given in an amount of 0.05 ml once a day for consecutive 8 weeks. After completion of the application, a part of the skin was excised from each mouse to take photographs of its surface morphology under scanning electron microscope. […] Evaluation was carried out using the value calculated by dividing the degree of order of the dermis collagen fiber bundle measured by the above method after the application by that before the application.

C[C@@H]1C[C@H]2[C@@H]3CCC4=CC(=O)C=C[C@]4(C)[C@@]3(F)[C@@H](O)C[C@]2(C)[C@@]1(O)C(=O)CO [dexamethasone]
average of the scores of the degree of order of dermis collagen fiber bundle (0.05 ml once a day for consecutive 8 weeks, five mice, score 0 to 3, 2,500 magnification, before application 0.82): 1.71
degree of amelioration of skin conditions (average score of treated group / average score of ethanol-applied group) (8 weeks, 1.71/0.78): 2.28
degree of amelioration of skin conditions (score after application / score before application) (8 weeks, 1.71/0.82): 2.09
